# Experimental data reported in paper PMC11877502, “Cytotoxic Stilbenoids, Hetero- and Homodimers of Homoisoflavonoids from Prospero autumnale” (Journal of Natural Products, 2025).
# Read-outs that look alike come from different tables or passages of the source.
# Key:
# [1] = system: DU145; assay: MTS cytotoxicity assay; assay type: cell-based; conditions: Homo sapiens, DU-145, 48 h, triplicate
# Protocol: (§1) Stock solutions of extracts and compounds were prepared by dissolving in DMSO (Sigma-Aldrich, no. D2650) at the concentrations of 100 mg/mL and 100 mM for extracts and compounds, respectively. […] Untreated cells were used as a control, while plain culture medium was used as a blank. Viability was determined with MTS Assay (Abcam #ab197010) according to the manufacturer’s instructions. Absorbance at 490 nm was measured with a spectrophotometer (Epoch, BioTek Instruments). Relative viability ratios were calculated with the equation given below, and IC50 values were determined in GraphPad Prism (version 8.0). [drawing 2]
# [2] = system: HCT116; assay: MTS cytotoxicity assay; assay type: cell-based; conditions: Homo sapiens, HCT-116, 48 h, triplicate
# Protocol: as §1
# [3] = system: HEP3B; assay: MTS cytotoxicity assay; assay type: cell-based; conditions: Homo sapiens, 48 h, triplicate
# Protocol: as §1
# [4] = system: HEPG2; assay: MTS cytotoxicity assay; assay type: cell-based; conditions: Homo sapiens, 48 h, triplicate, read-out: IC50 ± SEM HEPG2
# Protocol: as §1
# [5] = system: LoVo; assay: MTS cytotoxicity assay; assay type: cell-based; conditions: Homo sapiens, 48 h, triplicate, read-out: IC50 ± SEM LoVo
# Protocol: as §1
# [6] = system: MCF7; assay: MTS cytotoxicity assay; assay type: cell-based; conditions: Homo sapiens, 48 h, triplicate
# Protocol: as §1
# [7] = system: MDA-MB-231; assay: MTS cytotoxicity assay; assay type: cell-based; conditions: Homo sapiens, 48 h, triplicate
# Protocol: as §1
# [8] = system: PC3; assay: MTS cytotoxicity assay; assay type: cell-based; conditions: Homo sapiens, PC-3, 48 h, triplicate
# Protocol: as §1
# [9] = system: L929 nontumor mouse fibroblast cell line; assay: MTS cytotoxicity assay, nontumor cell line; assay type: cell-based; conditions: 48 h, triplicate
# Protocol: as §1
# [10] = system: human cancer cell lines (HCT116, LoVo, DU145, PC3, HEP3B, HEPG2, MCF7, MDA-MB-231); assay: MTS cytotoxicity assay, panel statements; assay type: cell-based; conditions: 48 h, span over compounds and cell lines, read-out: IC50 toward one or more cancer cell lines
# Protocol: as §1
# [11] = system: DU145; assay: Annexin V/propidium iodide staining; assay type: cell-based, human; conditions: 48 h at IC50 concentration, flow cytometry
# Protocol: (§2) Apoptosis, necrosis, and viability were analyzed by Annexin V-FITC and […] (PI) staining. For this purpose, cells were seeded at 5 × 10^5 cells per 60 mm dish and incubated overnight to allow attachment. Then, cells were treated with the selected compounds (1, 2, 4, and 10) for 48 h at respective IC50 concentrations. For flow cytometric analysis, cells were detached with Trypsin-EDTA solution (Thermo Fisher Scientific #25200056), washed with Dulbecco’s phosphate buffered saline (DPBS, Thermo Fisher Scientific #14190094) solution, and suspended in 1 mL of ice-cold Annexin V Binding Buffer (BioLegend #422201). Cells were then stained with 1 μL of Annexin V-FITC (Biovision #1001) and 1 μL PI (Thermo Fisher Scientific # P1304MP, diluted to 250 μg/mL in DPBS) by incubating cells on ice for 15 min in the dark. Cells were then immediately analyzed on a Beckman Coulter DxFLEX flow cytometry system. Each analysis was performed in triplicate, and 25 × 10^3 events were counted for each tube. Evaluations were done with CytEXPERT software.
# [12] = system: PC3; assay: Annexin V/propidium iodide staining; assay type: cell-based, human; conditions: 48 h at IC50 concentration, flow cytometry
# Protocol: as §2
# [13] = system: LoVo; assay: Annexin V/propidium iodide staining; assay type: cell-based, human; conditions: 48 h at IC50 concentration, flow cytometry
# Protocol: (§3) Apoptosis, necrosis, and viability were analyzed by Annexin V-FITC and […] (PI) staining. For this purpose, cells were seeded at 5 × 10^5 cells per 60 mm dish and incubated overnight to allow attachment. […] Cells were then immediately analyzed on a Beckman Coulter DxFLEX flow cytometry system. Each analysis was performed in triplicate, and 25 × 10^3 events were counted for each tube. Evaluations were done with CytEXPERT software.
# [14] = system: LoVo; assay: DNA content (cell cycle) analysis; assay type: cell-based, human; conditions: 48 h, DNA content by flow cytometry
# Protocol: (§4) To investigate cell cycle progression, cells were seeded as 5 × 10^5 cells per 60 mm dish and incubated overnight for attachment. After incubating with the selected compounds for 48 h, cells were detached with Trypsin-EDTA, washed once with DPBS, and fixed with ice-cold 70% EtOH by storing tubes at 4 °C for an hour. Then, EtOH was discarded by centrifuging cells, and the pellet was suspended in 500 μL cell cycle kit reagent (Beckman Coulter #C03551). Tubes were incubated at room temperature under the dark for 30 min. The experiment was done on triplicate, and 5 × 10^4 cells per test were acquired at a medium flow rate with the Beckman Coulter DxFLEX flow cytometry system. Analyses were performed with ModFit LT version 4.0.
# [15] = system: PC3; assay: DNA content (cell cycle) analysis; assay type: cell-based, human; conditions: 48 h, DNA content by flow cytometry
# Protocol: as §4
# [16] = system: MDA-MB-231; assay: Annexin V/propidium iodide staining; assay type: cell-based, human; conditions: 48 h at IC50 concentration, flow cytometry
# Protocol: as §3
# [17] = system: MDA-MB-231; assay: DNA content (cell cycle) analysis; assay type: cell-based, human; conditions: 48 h, DNA content by flow cytometry
# Protocol: as §4
# [18] = system: HEP3B; assay: Annexin V/propidium iodide staining; assay type: cell-based, human; conditions: 48 h at IC50 concentration, flow cytometry
# Protocol: as §2
# [19] = system: HEP3B; assay: DNA content (cell cycle) analysis; assay type: cell-based, human; conditions: 48 h, DNA content by flow cytometry
# Protocol: as §4
# [20] = system: HCT116; assay: Annexin V/propidium iodide staining; assay type: cell-based, human; conditions: 48 h at IC50 concentration, flow cytometry
# Protocol: as §2
# [21] = system: HEPG2; assay: Annexin V/propidium iodide staining; assay type: cell-based, human; conditions: 48 h at IC50 concentration, flow cytometry
# Protocol: as §2
# [22] = system: MCF7; assay: Annexin V/propidium iodide staining; assay type: cell-based, human; conditions: 48 h at IC50 concentration, flow cytometry
# Protocol: as §2
# [23] = system: HCT116; assay: DNA content (cell cycle) analysis; assay type: cell-based, human; conditions: 48 h, DNA content by flow cytometry
# Protocol: as §4
# [24] = system: HEPG2; assay: DNA content (cell cycle) analysis; assay type: cell-based, human; conditions: 48 h, DNA content by flow cytometry
# Protocol: as §4
# [25] = system: MCF7; assay: DNA content (cell cycle) analysis; assay type: cell-based, human; conditions: 48 h, DNA content by flow cytometry
# Protocol: as §4
# [26] = read-out: IC50 ± SEM MDA-MB-231
SMILES,IC50 ([1]; read-out: IC50 ± SEM DU145),IC50 ([2]; read-out: IC50 ± SEM HCT116),IC50 ([3]; read-out: IC50 ± SEM HEP3B),IC50 [4],IC50 [5],IC50 ([6]; read-out: IC50 ± SEM MCF7),"IC50 [7, 26]",IC50 ([8]; read-out: IC50 ± SEM PC3),IC50 ([9]; read-out: IC50 ± SEM L929),IC50 [10],"apoptosis/necrosis vs control, LoVo [13]","cell cycle effect, LoVo [14]",further results
"COc1cc(/C=C/c2ccc(O)cc2)cc(O)c1C [Compound 1, 3,4′-dihydroxy-4-methyl-5-methoxystilbene]",29.7 ± 4.4 µM,54.6 ± 5.5 µM,59.8 ± 4.2 µM,37.6 ± 5.3 µM,10.6 ± 0.5 µM,53.5 ± 9.1 µM,79.6 ± 5.6 µM,21.3 ± 2.1 µM,33.7 ± 3.9 µM,8.2 to 37.6 µM,apoptosis along with necrosis,S phase arrest,"apoptosis/necrosis vs control, DU145 [11]: promoting apoptosis and necrosis; apoptosis/necrosis vs control, PC3 [12]: promoting apoptosis and necrosis; cell cycle effect, PC3 [15]: S phase arrest"
"COc1cc(O)cc(/C=C/c2ccc(O)cc2)c1 [Compound 2, pinostilbene]",> 100 µM,71.3 ± 12.6 µM,93.5 ± 8.9 µM,51.8 ± 10 µM,8.2 ± 0.4 µM,95.7 ± 15 µM,23.3 ± 1.4 µM,88.7 ± 10.9 µM,13.4 ± 1.7 µM,8.2 to 37.6 µM,apoptosis along with necrosis,S phase arrest,"apoptosis/necrosis vs control, MDA-MB-231 [16]: more efficient in inducing apoptosis compared to 10; cell cycle effect, MDA-MB-231 [17]: S phase arrest"
"COc1cc(/C=C/c2cc(O)c(C)c(O)c2)ccc1O [Compound 3, scillabene A]",> 100 µM,> 100 µM,82.7 ± 3.9 µM,> 100 µM,83.4 ± 3.9 µM,> 100 µM,> 100 µM,> 100 µM,> 100 µM,–,–,–,–
"O=C1/C(=C/c2ccc(O)cc2)COc2cc(O)cc(O)c21 [Compound 4, (E)-4′-O-demethyleucomin]",> 100 µM,45.8 ± 8.4 µM,33.7 ± 3 µM,> 100 µM,40.4 ± 2.9 µM,95.3 ± 4.7 µM,77.5 ± 3.9 µM,88.1 ± 8.6 µM,> 100 µM,8.2 to 37.6 µM,–,–,"apoptosis/necrosis vs control, HEP3B [18]: significantly increased early apoptosis along with necrosis; cell cycle effect, HEP3B [19]: G2/M phase arrest"
"COc1c(O)c(OC)c2c(c1O)OC[C@@H](Cc1ccc(O)cc1)C2=O [Compound 7, 3R-(4′-hydroxybenzyl)-6,8-dihydroxy-5,7-dimethoxy-4-chromanone]",> 100 µM,> 100 µM,> 100 µM,> 100 µM,> 100 µM,> 100 µM,> 100 µM,> 100 µM,> 100 µM,–,–,–,–
"COc1ccc(C(c2c(O)cc3c(c2O)C(=O)/C(=C/c2ccc(O)cc2)CO3)c2coc3cc(O)cc(O)c3c2=O)cc1 (stereo not shown) [Compound 9, prosperin B]",> 100 µM,75.8 ± 8 µM,> 100 µM,> 100 µM,> 100 µM,> 100 µM,> 100 µM,> 100 µM,> 100 µM,–,–,–,–
"COc1ccc([C@H]2c3c(/C=C/c4ccc(O)cc4)cc(OC)c(C)c3O[C@@H]3Oc4cc(O)cc(O)c4C(=O)[C@@H]32)cc1 [Compound 10, prosperin C]",40.1 ± 2.8 µM,19.3 ± 3.1 µM,59.9 ± 6.9 µM,24 ± 2.2 µM,16.7 ± 0.8 µM,25.2 ± 5.1 µM,25.5 ± 2.4 µM,36.7 ± 2.5 µM,29.7 ± 1.7 µM,8.2 to 37.6 µM,apoptosis along with necrosis,G0/G1 phase arrest,"apoptosis/necrosis vs control, HCT116 [20]: significant increase in apoptosis; apoptosis/necrosis vs control, HEPG2 [21]: higher late apoptosis and necrosis; apoptosis/necrosis vs control, MCF7 [22]: increased apoptosis and necrosis; apoptosis/necrosis vs control, MDA-MB-231 [16]: increased apoptosis and necrosis; cell cycle effect, HCT116 [23]: G0/G1 phase arrest; cell cycle effect, HEPG2 [24]: slight S phase decrease; cell cycle effect, MCF7 [25]: G0/G1 phase arrest; cell cycle effect, MDA-MB-231 [17]: G0/G1 phase arrest"
"COc1cccc2c1C(=O)c1c(O)c3c(c(O)c1C2=O)C[C@@](O)(C(=O)CO)C[C@@H]3O[C@H]1C[C@H](N)[C@H](O)[C@H](C)O1 [doxorubicin, reference compound]",5.9 ± 0.4 µM,0.9 ± 0.1 µM,1.1 ± 0.1 µM,–,2.4 ± 0.2 µM,2.3 ± 0.3 µM,2.3 ± 0.3 µM,0.9 ± 0.1 µM,> 100 µM,–,–,–,"IC50 ([1]; read-out: IC50 ± SEM DU145, extract/fraction): 5.93 ± 0.38 µg/mL; IC50 ([2]; read-out: IC50 ± SEM HCT116, extract/fraction): 0.86 ± 0.14 µg/mL; IC50 ([3]; read-out: IC50 ± SEM HEP3B, extract/fraction): 1.1 ± 0.07 µg/mL; IC50 ([6]; read-out: IC50 ± SEM MCF7, extract/fraction): 2.32 ± 0.28 µg/mL; IC50 ([7]; read-out: IC50 ± SEM MDA-MB-231, extract/fraction): 2.33 ± 0.33 µg/mL; IC50 ([8]; read-out: IC50 ± SEM PC3, extract/fraction): 0.88 ± 0.08 µg/mL; IC50 ([9]; read-out: IC50 ± SEM L929, extract/fraction): > 100 µg/mL"
